Entries after “also recorded” stand apart in the source; their conditions may differ.
Assays:
[1] = tested on: EcpGEBO5.1; assay: Growth response of EcpGEBO5.1 for xanthine alkaloids (plate selection assay); type: cell-based, Escherichia coli; conditions: for Growth, Selection: ampicillin 50 μg/mL, spectinomycin 80 μg/mL, chloramphenicol 30 μg/mL; for Growth, No Selection: plates without spectinomycin and chloramphenicol
Procedure: The growth response of EcpGEBO5.1 for 4 different xanthine alkaloids was determined empirically using a selection assay with varying concentrations xanthine-based compounds: theophylline, xanthine, theobromine and caffeine.
Procedure: 300-400 colony forming units were plated on plates containing ampicillin (50 μg/mL), spectinomycin (80 μg/mL), chloramphenicol (30 μg/mL) and the indicated concentration of xanthine-based compound—see Table 2: Dissociation constants (KJ for the xanthines with the aptamer region (mCTC8-4 aptamer) previously determined (Jenison et al., 1994). No selection means plates without spectinomycin and chloramphenicol. (+) means growth was observed. (−) means no growth was observed. (˜) means reduced growth was observed.

[2] = target: mCTC8-4 aptamer; conditions: previously determined (Jenison et al., 1994); cited from earlier work
[3] = tested on: EcpGEBO5.1 + pZE21; assay: Growth response to xanthine in M9 minimal medium, control strain; type: cell-based, Escherichia coli; conditions: for OD600 of EcpGEBO5.1 + pZE21: selection (chloramphenicol 30 μg/ml, spectinomycin 80 μg/ml), 16 h
Procedure: (§1) In order to test the hypothesis, growth experiments with and without xanthine was performed. First, in order eliminate the putative contribution of any background mutation of the genome or of the pGEBO5.1 assay plasmid the library plasmid encoding the putative xanthine permease (pZE21_1H) from the AB95D01 soil metagenomic library was extracted and retransformed in strain EcpGEBO5.1. Instead of testing the strain in LB-medium, xanthine-free M9 minimal medium was used to test the effect of defined xanthine concentrations. Strain EcpGEBO5.1 transformed with the empty cloning vector pZE21 (EcpGEBO5.1+pZE21) was used as a control. Both strains were inoculated in 3 ml M9 minimal medium supplemented with kanamycin 50 μg/ml and ampicillin 50 μg/ml and grown overnight. The next day a new 3 ml culture was prepared under same conditions and inoculated by transferring 30 μl from the initial culture. At exponential phase (when the optical density at 600 nm (0D600) had reached ˜0.5) the culture was used to inoculate 200 μl M9 minimal selective media in a microtiterplate with varying concentrations of xanthine (Table below). Inoculums were diluted such that the initial OD600 of each culture was exactly 0.01. The microtiter plate was incubated at 37° C. in an ELx808 Absorbance Microtiterplate Reader from Biotek with shaking at 200 rpm. OD600 was measured after 16 h and the average and standard deviation was calculated from three biological replicates of each xanthine concentration. When grown in concentrations of xanthine ranging from 0 mM to 1 mM but no chloramphenicol or spectinomycin both strains were unaffected by the presence of xanthine. When applying selection (chloramphenicol 30 μg/ml and spectinomycin 80 μg/ml), growth was observed only for the strain harbouring the xanthine permease containing plasmid (pZE21_1H) and only when xanthine was added (Table 3). The experiment confirms the prediction that the DNA insert is encoding a xanthine permease protein, and that the increased xanthine uptake enables growth under selective conditions.

[4] = tested on: EcpGEBO5.1 + pZE21_1H; assay: Growth response to xanthine in M9 minimal medium, xanthine permease strain; type: cell-based, Escherichia coli; conditions: for OD600 of EcpGEBO5.1 + pZE21_1H: selection (chloramphenicol 30 μg/ml, spectinomycin 80 μg/ml), 16 h
Procedure: as §1

[5] = tested on: EcpGEBO5.1; assay: Spontaneous resistance of EcpGEBO5.1 in single and dual antibiotic selection (plating); type: cell-based, Escherichia coli; conditions: for Growth on antibiotic plate: LB agar, chloramphenicol 30 μg/mL and/or spectinomycin 80 μg/mL; for Colonies on single selection plates (in words): three plates each, 24 h of incubation
Procedure: pGEBO5.1 was transformed into E. coli Dh10B cells (forming EcpGEBO5.1) using standard methods known to the skilled person. To test whether the double selection system solved the problem of spontaneous resistance, plating of up to 1.3×10^8 EcpGEBO5.1 cells was performed in 10 replicates on LB agar media containing spectinomycin (80 μg/mL) and chloramphenicol (30 μg/mL) (‘dual selection’). As a control, plating on plates containing only chloramphenicol (30 μg/mL) or spectinomycin (80 μg/mL) (‘single selection’) was each performed in triplicate (See Table 1). Each plate was incubated for 72 hours. Of the 10 plates with dual selection no colonies were observed within the first 48 hours of incubation. […] Therefore, it appears that the probability of a single mutation to confer spontaneous resistance to one antibiotic is significant whereas the probability of a simultaneous double mutation to confer spontaneous resistance to both antibiotics is effectively nil.

[6] = xanthine 0 mM to 1 mM, no chloramphenicol or spectinomycin
[7] = 1.3 × 10^6 CFU plated (1 ul), 24 h growth
[8] = 1.3 × 10^6 CFU plated (1 ul), 48 h growth
[9] = 1.3 × 10^6 CFU plated (1 ul), 72 h growth
[10] = 1.3 × 10^7 CFU plated (10 ul), 24 h growth
[11] = 1.3 × 10^7 CFU plated (10 ul), 48 h growth
[12] = 1.3 × 10^7 CFU plated (10 ul), 72 h growth

Compound	Kd [2]	Growth, Selection ([1]; 1 mM xanthine compound)	Growth, No Selection ([1]; 1 mM xanthine compound)	Growth on antibiotic plate [5, 7]	Growth on antibiotic plate [5, 8]	Growth on antibiotic plate [5, 9]	Growth on antibiotic plate [5, 10]	Growth on antibiotic plate [5, 11]	Growth on antibiotic plate [5, 12]	Colonies on single selection plates (in words) [5]	further results
Cn1c(=O)c2c(ncn2C)n(C)c1=O [Caffeine, caffeine]	3500 ± 1500 µM										Growth, Selection ([1]; 3 mM xanthine compound): −; Growth, No Selection ([1]; 3 mM xanthine compound): +; Growth, Selection ([1]; 7 mM xanthine compound): −
Cn1cnc2c1c(=O)[nH]c(=O)n2C [Theobromine, theobromine]	> 500 µM	−	+								
Cn1c(=O)c2[nH]cnc2n(C)c1=O [Theophylline, theophylline]	0.32 ± 0.13 µM										Growth, No Selection ([1]; 0.1 mM xanthine compound): +; Growth, Selection ([1]; 2 mM xanthine compound): +; Growth, No Selection ([1]; 2 mM xanthine compound): +
O=c1[nH]c(=O)c2[nH]cnc2[nH]1 [Xanthine, xanthine]	8.5 ± 0.4 µM	−	+								Growth of EcpGEBO5.1 under selective conditions (in words) ([1]; 1 mM xanthine in the growth medium): lack of growth; also recorded: did not enable growth; Effect of xanthine on growth without selection [3, 6]: unaffected; OD600 of EcpGEBO5.1 + pZE21 ([3]; xanthine 1.0 μM): 0.02 ± 0.00; OD600 of EcpGEBO5.1 + pZE21 ([3]; xanthine 1.5 μM): 0.02 ± 0.00; OD600 of EcpGEBO5.1 + pZE21 ([3]; xanthine 2.0 μM): 0.02 ± 0.00; OD600 of EcpGEBO5.1 + pZE21 ([3]; xanthine 2.5 μM): 0.03 ± 0.00; OD600 of EcpGEBO5.1 + pZE21 ([3]; xanthine 4.5 μM): 0.03 ± 0.00; OD600 of EcpGEBO5.1 + pZE21 ([3]; xanthine 12.5 μM): 0.03 ± 0.01; Effect of xanthine on growth without selection [4, 6]: unaffected; OD600 of EcpGEBO5.1 + pZE21_1H ([4]; xanthine 1.0 μM): 0.17 ± 0.01; OD600 of EcpGEBO5.1 + pZE21_1H ([4]; xanthine 1.5 μM): 0.29 ± 0.01; OD600 of EcpGEBO5.1 + pZE21_1H ([4]; xanthine 2.0 μM): 0.37 ± 0.00; OD600 of EcpGEBO5.1 + pZE21_1H ([4]; xanthine 2.5 μM): 0.42 ± 0.00; OD600 of EcpGEBO5.1 + pZE21_1H ([4]; xanthine 4.5 μM): 0.50 ± 0.01; OD600 of EcpGEBO5.1 + pZE21_1H ([4]; xanthine 12.5 μM): 0.51 ± 0.01
O=C(N[C@H](CO)[C@H](O)c1ccc([N+](=O)[O-])cc1)C(Cl)Cl [chloramphenicol]				−	+ (‘+’ single colonies (1-1000))	+ (‘+’ single colonies (1-1000))	+ (‘+’ single colonies (1-1000))	++	++	numerous colonies	
CN[C@@H]1[C@H](O)[C@H](NC)[C@H]2O[C@@]3(O)C(=O)C[C@@H](C)O[C@H]3O[C@@H]2[C@H]1O [spectinomycin]				+ (‘+’ single colonies (1-1000))	++	++	+ (‘+’ single colonies (1-1000))	++	++	numerous colonies	

Source: patent publication US20160186187A1, “REGULATABLE GENE EXPRESSION” (BIOSYNTIA APS, priority 2013, published 2016)
